Data published in the supplement of paper PMC10307832.

Columns and labels:
Assay in all cases: relative viability (nuclei count vs DMSO), 5 days (fraction); higher = more cells survive
[1] = compound: CCC1=CN=CN=C1N2CCN(CC2)CC3=NC4=C(N3)C=C(C=C4)C(F)(F)F + Nc1nc2[nH]cc(CCc3ccc(C(=O)N[C@@H](CCC(=O)O)C(=O)O)cc3)c2c(=O)[nH]1 [Pemetrexed] (partner 0.2 µM)
Summary of the method: (§1)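 After 5 days of treatment, lung cancer cells in 1536-well plates were fixed and stained in a single step (final 0.05% Triton X-100, 1% formaldehyde, 1 ug/ml Hoechst) and their nuclei counted on 4× images. Treatment had been applied by pin tool the day after seeding as one drug alone or as a fixed anchor-drug dose with five library-drug doses (not always all listed) in √10 steps. Relative viability is the nuclei count of treated wells divided by that of vehicle wells, and values are medians of duplicate plates.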

[2] = compound: CCn1c(-c2nonc2N)nc2cnc(Oc3cccc(NC(=O)c4ccc(OCCN5CCOCC5)cc4)c3)cc21 + NC(=O)Nc1cc(-c2cccc(F)c2)sc1C(=O)N[C@H]1CCCNC1 [AZD7762] (partner 0.2 µM)
Summary of the method: as §1

Mirin + Foretinib = compound: N=C1NC(=O)/C(=C/c2ccc(O)cc2)S1 [Mirin] + COc1cc2c(Oc3ccc(NC(=O)C4(C(=O)Nc5ccc(F)cc5)CC4)cc3F)ccnc2cc1OCCCN1CCOCC1 [Foretinib] (partner 0.25 µM)
Summary of the method: as §1

Mirin + Dasatinib = compound: N=C1NC(=O)/C(=C/c2ccc(O)cc2)S1 [Mirin] + Cc1nc(Nc2ncc(C(=O)Nc3c(C)cccc3Cl)s2)cc(N2CCN(CCO)CC2)n1 [Dasatinib] (partner 0.075 µM)
Summary of the method: as §1

Cell Line | relative viability ([1]; first compound 0.04 µM) | relative viability ([1]; first compound 0.1265 µM) | relative viability ([1]; first compound 0.4 µM) | relative viability ([1]; first compound 1.265 µM) | relative viability ([1]; first compound 4 µM) | relative viability ([2]; first compound 0.04 µM) | relative viability ([2]; first compound 0.1265 µM) | relative viability ([2]; first compound 0.4 µM) | relative viability ([2]; first compound 1.265 µM) | relative viability ([2]; first compound 4 µM) | relative viability (Mirin + Foretinib; first compound 0.25 µM) | relative viability (Mirin + Foretinib; first compound 0.7906 µM) | relative viability (Mirin + Foretinib; first compound 2.5 µM) | relative viability (Mirin + Foretinib; first compound 7.906 µM) | relative viability (Mirin + Foretinib; first compound 25 µM) | relative viability (Mirin + Dasatinib; first compound 0.25 µM) | relative viability (Mirin + Dasatinib; first compound 0.7906 µM) | relative viability (Mirin + Dasatinib; first compound 2.5 µM) | relative viability (Mirin + Dasatinib; first compound 7.906 µM) | relative viability (Mirin + Dasatinib; first compound 25 µM)
NCI-H647 | 0.165 | 0.173 | 0.166 | 0.159 | 0.135 | 0.523 | 0.242 | 0.249 | 0.193 | 0.121 | 1.4 | 1.27 | 1.14 | 1.32 | 0.946 | 0.152 | 0.177 | 0.216 | 0.174 | 0.132
NCI-H441 | 0.231 | 0.274 | 0.274 | 0.204 | 0.265 | 1.34 | 1.05 | 1.21 | 0.961 | 0.698 | 1.02 | 1.16 | 0.995 | 1.09 | 1.05 | 0.662 | 0.556 | 0.622 | 0.59 | 0.439
NCI-H1993 | 0.597 | 0.644 | 0.575 | 0.513 | 0.674 | 0.763 | 0.701 | 0.598 | 0.742 | 0.742 | 0.716 | – | 0.821 | 0.76 | 0.824 | 0.518 | – | 0.678 | 0.455 | 0.556
NCI-H1437 | 0.296 | 0.295 | 0.306 | 0.35 | 0.224 | 1.13 | 1.08 | 0.718 | 0.625 | 0.642 | 1.31 | 1.31 | 1.22 | 1.2 | 1.19 | 0.405 | 0.41 | 0.386 | 0.309 | 0.347
PC-14 | 0.135 | 0.153 | 0.141 | 0.13 | 0.135 | 0.334 | 0.323 | 0.218 | 0.215 | 0.232 | 0.968 | 0.833 | 1.09 | 0.929 | 1.02 | 0.243 | 0.248 | 0.26 | – | 0.295
NCI-H1666 | 0.745 | 0.831 | 0.861 | 0.81 | 0.939 | 0.907 | 0.875 | 0.694 | 0.383 | 0.477 | 0.963 | 1.03 | 1.04 | 0.941 | 0.836 | 0.93 | 0.807 | 0.846 | 0.709 | 0.681
NCI-H1944 | 0.702 | 0.561 | 0.61 | 0.541 | 0.699 | 0.5 | 0.524 | 0.297 | 0.249 | 0.202 | 0.824 | 0.95 | 0.888 | 0.814 | 0.557 | 0.218 | 0.244 | 0.2 | 0.218 | 0.224
NCI-H1755 | 0.425 | 0.453 | 0.754 | 0.411 | 0.454 | 0.437 | 0.4 | 0.291 | 0.243 | 0.31 | 1 | 0.918 | 0.963 | 0.931 | 1.05 | 0.396 | 0.383 | 0.391 | 0.389 | 0.436
NCI-H2347 | 0.422 | 0.408 | 0.434 | 0.373 | 0.442 | 0.951 | 0.766 | 0.641 | 0.378 | 0.413 | 1.08 | 0.652 | 1.17 | 0.683 | 0.879 | 0.336 | 0.316 | 0.344 | 0.287 | 0.273
201T | 0.274 | 0.312 | 0.297 | 0.322 | 0.375 | 0.632 | 0.603 | 0.462 | 0.608 | 0.535 | 1.1 | 1.24 | 1.17 | 1.06 | 1.17 | 0.595 | 0.636 | 0.545 | 0.474 | 0.598
NCI-H1734 | 0.449 | 0.39 | 0.408 | 0.422 | 0.435 | 0.581 | 0.423 | 0.274 | 0.22 | 0.224 | 0.847 | 0.739 | 0.788 | 0.849 | 0.702 | 0.484 | 0.436 | 0.469 | 0.45 | 0.438
NCI-H596 | 0.52 | 0.506 | 0.483 | 0.438 | 0.444 | 1.23 | 0.926 | 0.941 | 0.762 | 0.9 | 0.826 | 0.953 | 1.03 | 0.916 | 1.08 | 0.643 | 0.596 | 0.559 | 0.525 | 0.569
NCI-H1355 | 1.07 | 0.928 | 0.996 | 0.996 | 1.08 | 0.676 | 0.684 | 0.369 | 0.313 | 0.217 | 0.67 | 1 | 0.967 | 0.971 | 0.918 | 0.766 | 0.724 | 0.691 | 0.564 | 0.648
NCI-H1915 | 0.537 | 0.511 | 0.529 | 0.479 | 0.498 | 0.726 | 0.569 | 0.467 | 0.251 | 0.201 | 1.06 | – | 1.12 | 0.948 | 0.975 | 0.308 | – | 0.332 | 0.342 | 0.31
BEN | 0.605 | 0.651 | 0.667 | 0.551 | 0.676 | 0.683 | 0.532 | 0.388 | 0.385 | 0.468 | 0.567 | 0.654 | 0.68 | 0.552 | 0.386 | 0.321 | 0.315 | 0.308 | 0.305 | 0.246
NCI-H322M | 0.62 | 0.606 | 0.603 | 0.539 | 0.629 | 0.587 | 0.556 | 0.561 | 0.496 | 0.445 | 1.06 | 1.02 | 1.07 | 0.934 | 1.05 | 0.264 | 0.258 | 0.246 | 0.268 | 0.244
